Paper PMC4037565 (Organic & biomolecular chemistry, 2013)
Square brackets hold non-standard residues; d marks the D form. Peptide text beside a SMILES is read from it. Lys(N3) = [N-]=[N+]=NCCCC[C@H](N)C(=O)O; Orn = NCCC[C@H](N)C(=O)O; Pra = C#CC[C@H](N)C(=O)O

Key:
[1] = read-out: Kd / binding constant for ATP; parent peptide; cited from earlier work
[2] = Solubility under NMR/CD buffer conditions; format: physicochemical; conditions: 50 mM KD2PO4, pH 7, 20°C

Compound	Kd [1]	solubility (observation) [2]
Ac-RWVKVNGOWIKQ-NH2 [WKWK]	170 µM	–
C#CC[C@H](NC(=O)[C@H](CCCNC(=N)N)NC(C)=O)C(=O)N[C@H](C(=O)N[C@@H](CCCCN)C(=O)N[C@H](C(=O)N[C@@H](CC(N)=O)C(=O)NCC(=O)N[C@@H](CCCN)C(=O)N[C@@H](Cc1c[nH]c2ccccc12)C(=O)N[C@H](C(=O)N[C@@H](CCCCN=[N+]=[N-])C(=O)N[C@@H](CCC(N)=O)C(N)=O)[C@@H](C)CC)C(C)C)C(C)C [NHB-rev-U] (Ac-R[Pra]VKVNG[Orn]WI[Lys(N3)]Q-NH2)	–	not fully soluble and formed a gel-like substance
